In US9139523B2, “5-HT2B receptor antagonists” (Janssen Pharmaceutica, NV, priority 2010, dated 2015):
Read-outs that look alike come from different tables or passages of the source.

Columns and labels:
[1] = Cardiovascular effects in the anaesthetized guinea-pig; type: in vivo; details: female, plasma, iv, guinea pig, end of 5-min i.v. infusion; for concentration at 5 min: read-out: Median plasma level; for Cmax: read-out: Median plasma level (Cmax)
Description: (§1) Female guinea-pigs were anesthetized with sodium pentobarbital (66 mg/kg i.p.) followed by a continuous i.v. infusion of 6 mg/h of sodium pentobarbital and prepared for measurements of the surface electrocardiogram (ECG), heart rate and mean arterial blood pressure (see De Clerck et al, Fundam. Clin. Pharm.; 2002; 16: 125-140). Compound (−)-17 was dissolved in 20% hydroxypropyl-cyclodextrin with NaOH, HCl and mannitol in pyrogen-free water and administered intravenously (0.5 ml/kg) in increasing doses (0.16, 0.32, 0.64, 1.25, 2.5 and 5 mg/kg) over a period of 5 min at 15-min intervals. Plasma concentrations of Compound (−)-17 were measured at the end of each infusion. Corresponding volumes of vehicle were administered according to the same protocol in a second group of animals.

anesthetized guinea-pig = assay: as above; type: in vivo
Description: as §1

[2] = guinea pig i.v. 0.16 mg/kg @ 2′
[3] = guinea pig i.v. 0.16 mg/kg @ 5′
[4] = guinea pig i.v. 0.16 mg/kg @ 15′
[5] = guinea pig i.v. 0.32 mg/kg @ 2′
[6] = guinea pig i.v. 0.32 mg/kg @ 5′
[7] = guinea pig i.v. 0.32 mg/kg @ 15′
[8] = guinea pig i.v. 0.64 mg/kg @ 2′
[9] = guinea pig i.v. 0.64 mg/kg @ 5′

COc1cc(N)c(Cl)cc1C(=O)NC1CCN(CCCOc2ccc(F)cc2)CC1(F)F (single isomer, unassigned) [Compound (−)-17, 4-amino-5-chloro-N-{3,3-difluoro-1-[3-(4-fluorophenoxy)-propyl]-piperidin-4-yl}-2-methoxybenzamide]
concentration at 5 min ([1]; dose 0.16 mg/kg (increasing doses, 15-min intervals)): 398 ng/mL
concentration at 5 min ([1]; dose 0.32 mg/kg (increasing doses, 15-min intervals)): 873 ng/mL
concentration at 5 min ([1]; dose 0.64 mg/kg (increasing doses, 15-min intervals)): 1820 ng/mL
concentration at 5 min ([1]; dose 1.25 mg/kg (increasing doses, 15-min intervals)): 3330 ng/mL
Cmax ([1]; dose 2.5 mg/kg (increasing doses, 15-min intervals)): 6320 ng/mL
Cmax ([1]; dose 5 mg/kg (increasing doses, 15-min intervals; total dose 9.87 mg/kg)): 12000 ng/mL
HR, percentage change relative to baseline (anesthetized guinea-pig; [2]): −1%
MBP, percentage change relative to baseline (anesthetized guinea-pig; [2]): 4%
PQ, percentage change relative to baseline (anesthetized guinea-pig; [2]): 0%
QRS, percentage change relative to baseline (anesthetized guinea-pig; [2]): −2%
QT, percentage change relative to baseline (anesthetized guinea-pig; [2]): 0%
QTc B, percentage change relative to baseline (anesthetized guinea-pig; [2]): −1%
HR, percentage change relative to baseline (anesthetized guinea-pig; [3]): 0%
PQ, percentage change relative to baseline (anesthetized guinea-pig; [3]): 1%
QRS, percentage change relative to baseline (anesthetized guinea-pig; [3]): −2%
QT, percentage change relative to baseline (anesthetized guinea-pig; [3]): −1%
QTc B, percentage change relative to baseline (anesthetized guinea-pig; [3]): −1%
HR, percentage change relative to baseline (anesthetized guinea-pig; [4]): −2%
MBP, percentage change relative to baseline (anesthetized guinea-pig; [4]): −3%
PQ, percentage change relative to baseline (anesthetized guinea-pig; [4]): 4%
QRS, percentage change relative to baseline (anesthetized guinea-pig; [4]): 0%
QT, percentage change relative to baseline (anesthetized guinea-pig; [4]): 1%
QTc B, percentage change relative to baseline (anesthetized guinea-pig; [4]): 1%
HR, percentage change relative to baseline (anesthetized guinea-pig; [5]): −1%
MBP, percentage change relative to baseline (anesthetized guinea-pig; [5]): 6%
PQ, percentage change relative to baseline (anesthetized guinea-pig; [5]): 2%
QRS, percentage change relative to baseline (anesthetized guinea-pig; [5]): −2%
QT, percentage change relative to baseline (anesthetized guinea-pig; [5]): 0%
QTc B, percentage change relative to baseline (anesthetized guinea-pig; [5]): 1%
HR, percentage change relative to baseline (anesthetized guinea-pig; [6]): −4%
MBP, percentage change relative to baseline (anesthetized guinea-pig; [6]): 2%
PQ, percentage change relative to baseline (anesthetized guinea-pig; [6]): 4%
QRS, percentage change relative to baseline (anesthetized guinea-pig; [6]): 0%
QT, percentage change relative to baseline (anesthetized guinea-pig; [6]): 3%
QTc B, percentage change relative to baseline (anesthetized guinea-pig; [6]): 1%
HR, percentage change relative to baseline (anesthetized guinea-pig; [7]): −4%
MBP, percentage change relative to baseline (anesthetized guinea-pig; [7]): −3%
PQ, percentage change relative to baseline (anesthetized guinea-pig; [7]): 4%
QRS, percentage change relative to baseline (anesthetized guinea-pig; [7]): 0%
QT, percentage change relative to baseline (anesthetized guinea-pig; [7]): 4%
QTc B, percentage change relative to baseline (anesthetized guinea-pig; [7]): 3%
HR, percentage change relative to baseline (anesthetized guinea-pig; [8]): −5%
MBP, percentage change relative to baseline (anesthetized guinea-pig; [8]): 6%
PQ, percentage change relative to baseline (anesthetized guinea-pig; [8]): 5%
QRS, percentage change relative to baseline (anesthetized guinea-pig; [8]): 0%
QT, percentage change relative to baseline (anesthetized guinea-pig; [8]): 7%
QTc B, percentage change relative to baseline (anesthetized guinea-pig; [8]): 4%
HR, percentage change relative to baseline (anesthetized guinea-pig; [9]): −2%
MBP, percentage change relative to baseline (anesthetized guinea-pig; [9]): 13%
PQ, percentage change relative to baseline (anesthetized guinea-pig; [9]): 5%
QRS, percentage change relative to baseline (anesthetized guinea-pig; [9]): −5%
QT, percentage change relative to baseline (anesthetized guinea-pig; [9]): 5%
QTc B, percentage change relative to baseline (anesthetized guinea-pig; [9]): 2%
